The assay addresses T1, 15-PGDH (Homo sapiens, UniProt P15428).
T1 construct: made in house
T1 sequence (P15428 1-266): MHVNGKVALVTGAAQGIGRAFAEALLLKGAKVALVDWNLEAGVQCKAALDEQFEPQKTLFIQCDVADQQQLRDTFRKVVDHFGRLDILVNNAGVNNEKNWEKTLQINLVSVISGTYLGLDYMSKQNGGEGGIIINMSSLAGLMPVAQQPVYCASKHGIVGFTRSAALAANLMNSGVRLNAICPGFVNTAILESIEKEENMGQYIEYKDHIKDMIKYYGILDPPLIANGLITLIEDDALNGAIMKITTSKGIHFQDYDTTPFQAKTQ
Put plainly: Test on 15-PGDH (spectrophotometric, NAD/PGE2, 340 nm). The class given is biochemical. The following applies: for IC50: pH 7.4 Tris buffer, 37° C., 50 μM prostaglandin E2, 1.5 mM β-NAD, read-out: IC50 (concentration reducing the enzymatic activity of 15-PGDH by 50%, IC50dh). On the procedure:
The enzyme 15-PGDH is obtained as described in FR 02/05067 filed in the name of L'Oreal, as a suspension in a medium adjusted to a concentration of 0.3 mg/mL and then blocked at −80° C. For the purposes of the test, this suspension is thawed and stored in ice.
In parallel, a 100 mM, pH 7.4 Tris buffer containing 0.1 mM of dithiothreitol (D5545, Sigma-Aldrich, L'isle D'Abeau Chesne, BP 701, 38297, Saint Quentin Fallavier), 1.5 mM of β-NAD (N6522, Sigma-Aldrich, L'isle D'Abeau Chesne, BP 701, 38297, Saint Quentin Fallavier), and 50 μM of prostaglandin E2 (P4172, Sigma-Aldrich, L'isle D'Abeau Chesne, BP 701, 38297, Saint Quentin Fallavier) is prepared.
0.965 ml of this buffer (brought to 37° C. beforehand) is introduced into the cuvette of a spectrophotometer (Perkin-Elmer, Lambda 2) thermostatically maintained at 37° C., the measuring wavelength of which is set at 340 nm. 0.035 mL of enzymatic suspension at 37° C. is introduced into the cuvette concomitantly with the recording (corresponding to an increase in the optical density at 340 nm). The maximum reaction rate is recorded.

The results in this text go back to patent publication US20080025940A1, “Administration of 3-sulfanylpropanamide compounds for stimulating hair and eyelash growth and/or for stopping the loss and/or limiting the depigmentation thereof” (L'OREAL, priority 2005, published 2008).

In the case of `CSCCC(=O)NCc1ccc(C)o1` [Example 1, N-[(5-methyl-2-furyl)methyl]-3-(methylsulfanyl)propanamide], the IC50 turned out to be 0.8 µM.
Regarding `CSCCC(=O)NCc1ccco1` [Example 2, N-(2-furylmethyl)-3-(methylsulfanyl)propanamide], the IC50 was 9.8 µM.
Take `COc1ccc(CNC(=O)CCSC)cc1` [Example 3, N-(4-methoxybenzyl)-3-(methylsulfanyl)propanamide]: the IC50 was 6 µM.
As for `CCCCCCNC(=O)CCSC` [Example 4, N-hexyl-3-(methylsulfanyl)propanamide], the IC50 came to 12 µM.
The compound `CSCCC(=O)Nc1ccccc1C(F)(F)F` [Example 5, 3-(methylsulfanyl)-N-[2-(trifluoromethyl)phenyl]propanamide] gave an inhibition at 100 µM (at 100 μM) of 21%.
Regarding `CSCCC(=O)NC(C)c1ccccc1` (centres unmarked) [Example 7, 3-(methylsulfanyl)-N-(1-phenylethyl)propanamide], the IC50 is 14.7 µM.
Consider `CSCCC(=O)NC1CCC1` [Example 8, N-cyclobutyl-3-(methylsulfanyl)propanamide], for which the IC50 amounted to 47 µM.
In the case of “N-benzyl-3-(methylsulfanyl)propanamide [Example 6]”, the IC50 stood at 1.6 µM.

As a reminder, the inhibition is the relative decrease from the control value, in per cent. Read a high inhibition as a strong effect.
